# Measurements published in patent US6433150B1, “Anthracycline analogues bearing latent alkylating substituents” (Board of Regents, The University of Texas System, priority 1990, dated 2002).
# Read-outs that look alike come from different tables or passages of the source.
# Legend:
# P388 = settings: cited from earlier work
# [1] = system: CEM cells (human T-lymphoblastic cell line); assay: Cytotoxicity studies, CEM cells; type: cell-based; settings: for IC50: six days incubation with drug at 37° C.
# Stability at neutral pH = type: physicochemical
# Source text: (§1) To the best of applicants' knowledge, dialdehyde monoacetals such as 10 have not been reported previously. [These should be versatile synthetons in organic synthesis since the acetal ester groups can be cleaved under extremely mild conditions (weak base or esterase activity)]. Condensation of 10 with doxorubicin, 11, in the presence of NaCNBH3 generated 2a directly in >50% yield. Evidence for the structure of 2a was obtained by ^1H and COSY NMR, and by mass spectrometry.
# [2] = system: CEM (VLB) cells (human T-lymphoblastic cell line resistant to Velban (vinblastine)); assay: Cytotoxicity studies, CEM (VLB) cells; type: cell-based; settings: for Resistance index ([CEM(VLB)]/[CEM]): ratio of IC50 values; for IC50: six days incubation with drug at 37° C., Velban (vinblastine) resistant line
# [3] = system: 8226R40 human myeloma cells; assay: Potency to 8226R40 human myeloma cells; type: cell-based
# [4] = Solubility in aqueous media; type: physicochemical
# Source text: as §1
compound,measurement,setting,value
COc1cccc2c1C(=O)c1c(O)c3c(c(O)c1C2=O)C[C@@](O)(C(C)=O)C[C@@H]3O[C@H]1C[C@H](N2CCOCC2)[C@H](O)[C@H](C)O1 [3′-Deamino-3-(4-morpholinyl)daunorubicin],T/C value against P388,P388,166%
same,active dose relative to the dose of doxorubicin,P388,one-fortieth
"COc1cccc2c1C(=O)c1c(O)c3c(c(O)c1C2=O)C[C@@](O)(C(=O)CO)C[C@@H]3O[C@H]1C[C@H](NCCCCC(OC(C)=O)OC(C)=O)[C@H](O)[C@H](C)O1.Cl [Compound 2a, N-(5,5-Diacetoxypentyl) doxorubicin hydrochloride]",times more toxic to the parent CEM cells than doxorubicin,[1]; relative to doxorubicin,60 times
same,IC50,[1],0.15 nM
same,stability at neutral pH,Stability at neutral pH,stable
same,cross resistance against the velban resistant mutant,[2]; compared with doxorubicin,markedly reduced cross resistance
same,Resistance index ([CEM(VLB)]/[CEM]),[2],6
same,IC50,[2],1 nM
same,IC50,[3],1.5 nM
same,times more potent to 8226R40 human myeloma cells than doxorubicin,[3]; relative to doxorubicin,400 times
same,solubility in aqueous media,[4],freely soluble
"COc1cccc2c1C(=O)c1c(O)c3c(c(O)c1C2=O)C[C@@](O)(C(=O)CO)C[C@@H]3O[C@H]1C[C@H](N)[C@H](O)[C@H](C)O1 [Doxorubicin, reference compound]",IC50,"[1]; Homo sapiens, CCRF-CEM, 144 h",10 nM
same,T/C value against P388,P388,160%
same,IC50,"[2]; Homo sapiens, CEM-VLB, 144 h",1340 nM
same,Resistance index ([CEM(VLB)]/[CEM]),[2],134
same,IC50,[3]; Homo sapiens,600 nM
"N-(2,2-Diacetoxyethyloxyethyl) doxorubicin HCl [Compound 2b]",IC50,[1],3 nM
same,Resistance index ([CEM(VLB)]/[CEM]),[2],5
same,IC50,[2],15 nM
